Source: patent US7112680B2, “Heterocyclic hydrazones for use as anti-cancer agents” (Austria Wirtschaftsservice Gesellschaft MIT Beschrankter …, priority 2000, dated 2006)
Like-named read-outs stand apart in the source and are kept apart here.

Key:
[1] = test system: KB-3-1 (human oral epidermoid carcinoma); experiment: Inhibition of tumor cell growth, SRB-assay, KB-3-1; type: cell-based
Experimental: (§1) In order to obtain information about the growth-inhibiting action on tumor cells, the inhibition of the growth of the following human tumor cells was determined: Burkitt's lymphoma (CA 46, ATCC No. CRL 1648), CCRF-CEM (acute lymphoblastic leukemia, ATCC No. CCL 119), K562 (chronic myelogenous leukemia, ATTC No. CCL 243), HeLa (epitheloid cervix carcinoma, ATCC No. CCL 2), MEXF 276L (melanoma), HT-29 (colon adenocarcinoma, ATCC No. HTB 38), KB-3-1 (human oral epidermoid carcinoma, CTCC No. CCL 17), KB-HU hydroxyurea-resistant, multidrug-resistant KB-C1 cells (Akiyama et al, Cell. Mol Genet., 11:117–126, 1985). Burkitt's, CCRF-CEM, HeLa and MEXF 276L cells were grown in RPMI 1640, HT-29 cells in McCoy's 5A medium. The KB cell lines were grown in Dulbecco's modified Eagle's medium (4,5 g glucose/l). To the cultures of KB-C1 cells 1 μg of colchicine/ml, and to the hydroxyurea-resistant KB-HU cells 1 mM hydroxyurea was added every other week. The media were supplemented with 10% fetal calf serum (except Burkitt's lymphoma cells with 15%), 2 mM glutamine, 50 units/ml penicillin and 50 μg/ml streptomycin. Inhibition of growth of HeLa, HT-29, KB and MEXF 276L cells was detected by the SRB-assay (Skehan et al, J. Natl Cancer Inst., 82:1107–1112, 1990). 3,000 - 10,000 cells in 200 μl medium were seeded per well into 96-well plates. Dose-response curves for CCRF-CEM and Burkitt's lymphoma cells were effected by an MTT-assay (Mosman, J. Immunol Methods, 65:55–63, 1983) from Boehringer Mannheim, Mannheim, Germany. Approximately 10,000 cells per 100 μl were seeded in 96-well plates. After an initial incubation of four hours, various substance concentrations were added, and the cells were incubated at 37° C. in a water-saturated atmosphere of 95% air and 5% CO2 for 72 hours. The substances were dissolved in dimethylsulfoxide (DMSO). The concentration of DMSO was 0.5%, and this was not toxic to the cells. Subsequently, the samples were fixed, washed, and the absorption was determined by a microplate reader.

[2] = test system: HeLa (epitheloid cervix carcinoma); experiment: Inhibition of tumor cell growth, SRB-assay, HeLa; type: cell-based, human
[3] = test system: HT-29 (colon adenocarcinoma); experiment: Inhibition of tumor cell growth, SRB-assay, HT-29; type: cell-based, human
Experimental: (§2) The KB cell lines were grown in Dulbecco's modified Eagle's medium (4,5 g glucose/l). To the cultures of KB-C1 cells 1 μg of colchicine/ml, and to the hydroxyurea-resistant KB-HU cells 1 mM hydroxyurea was added every other week. […] 3,000 - 10,000 cells in 200 μl medium were seeded per well into 96-well plates. […] Approximately 10,000 cells per 100 μl were seeded in 96-well plates. […] The substances were dissolved in dimethylsulfoxide (DMSO). […] Subsequently, the samples were fixed, washed, and the absorption was determined by a microplate reader.

[4] = test system: multidrug-resistant KB-C1 cells; experiment: Inhibition of tumor cell growth, SRB-assay, KB-C1; type: cell-based, human
Experimental: as §1

[5] = test system: KB-HU hydroxyurea-resistant cells; experiment: Inhibition of tumor cell growth, SRB-assay, KB-HU; type: cell-based, human
Experimental: as §1

[6] = test system: Burkitt's lymphoma (CA 46, ATCC No. CRL 1648); experiment: Inhibition of tumor cell growth, MTT-assay, Burkitt's lymphoma; type: cell-based, human
Experimental: as §2

[7] = test system: human tumor grafts (cell lines of FIG. 1); experiment: Colony forming assay (two-layer soft agar); type: cell-based; conditions: for IC50 / IC90 / Mean IC70: mean values of all cell lines tested in FIG. 1, continuous exposure 3 to 6 days; for tumor type selectivity: colony forming assay, IC70 pattern, FIG. 1
Experimental: An excellent correlation of drug response in patients and the colony forming assay has been found (Scholz et al, Eur. J. Cancer 25:901–905, 1990). Solid human tumors were grown as grafts in nude mice, removed from the latter, mechanically comminuted and subsequently incubated in an enzyme cocktail consisting of collagenase (1.2–1.8 U/ml), DNAse (375 U/ml) and hyaluronidase (29 U/ml) in RPMI 1640 medium at 37° C. for 30 minutes. The cell mixture was passed through sieves of 200 μm and 50 μm mesh size and washed thereafter twice with PBS (phosphate buffered saline). The percentage of live cells was determined using a Neubauer counting chamber and trypan blue staining.
The colony forming assay was performed according to a two-layer agar technique introduced and modified by Hamburger and Salmon (Hamburger and Salmon, Science, 197:461–463, 1977). The bottom layer consisted of 0.2 ml of Iscoves's Modified Dulbecco's medium with 20% fetal calf serum and 0.75% agar. 8×10^3 to 1.6×10^4 cells were added to the same medium and 0.4% agar and plated in 24-multiwell plates onto the base layer. One day after the plating (with continuous exposure), the substances were added in 0.2 ml medium. Each plate included six controls containing the solvent only, and the treated groups contained 6 concentrations of the substances, each in triplicate. Cultures were incubated at 37° C. and 7% CO2 in a water-saturated atmosphere for 3 to 6 days, depending on the doubling time of the tumor cells. At the time of maximum colony formation with a size of […], counts were performed with an automatic image analysis system. 24 h prior to counting, live colonies were stained with a sterile aqueous solution of 2-(4-iodophenyl)-3-(4-nitrophenyl)-5-phenyltetrazolium chloride (1 mg/ml, 100 μl/well). The results of the tests are given in FIG. 1, and in the following Table 5, respectively. […] Columns pointing towards the right show a slighter than average activity.

[8] = Table 4, 72 hours, read-out: In vitro-activity against human tumor cell lines, KB-3-1
[9] = Table 4, 72 hours, read-out: In vitro-activity against human tumor cell lines, HeLa
[10] = Table 4, 72 hours, read-out: In vitro-activity against human tumor cell lines, HT-29
[11] = Table 4, 72 hours, read-out: In vitro-activity against human tumor cell lines, KB-C1
[12] = Table 4, 72 hours, read-out: In vitro-activity against human tumor cell lines, KB-HU
[13] = Table 4, 72 hours, read-out: In vitro-activity against human tumor cell lines, Burkitts
[14] = Table 1, 72 hours, read-out: IC50 KB-3-1
[15] = Table 1, 72 hours, read-out: IC50 HeLa (converted)
[16] = Table 1, 72 hours, read-out: IC50 HT-29 (converted)
[17] = Table 1, 72 hours, read-out: IC50 KB-Cl
[18] = Table 1, 72 hours, read-out: IC50 KB-HU
[19] = Table 1, 72 hours, read-out: IC50 Burkitts

SMILES	IC50 [1, 8]	IC50 [4, 11]	IC50 [5, 12]	IC50 [1, 14]	IC50 [2, 15]	IC50 [3, 16]	IC50 [4, 17]	other results
CC(=NNc1nc2ccccc2n1C)c1cccc(Br)n1 [Id-6]	1690 nM	2130 nM	3890 nM	–	–	–	–	IC50 [2, 9]: 3250 nM; IC50 [3, 10]: 3150 nM; IC50 [6, 13]: 2490 nM
CC(=NNc1nc2ccccc2n1C)c1cccc(C)n1 [Id-10]	490 nM	1800 nM	2230 nM	–	–	–	–	IC50 [2, 9]: 380 nM; IC50 [3, 10]: 800 nM; IC50 [6, 13]: 110 nM
CC(=NNc1nc2ccccc2n1C)c1ccc(C)cn1 [Id-9, 1-(5-Methyl-2-pyridyl)-1-ethanone-1-(1-methyl-1H-benzo[d]imidazol-2-yl)-hydrazone]	–	–	–	–	–	–	–	IC50 ([1]; Homo sapiens, KB 3-1, Table 4, 72 hours, read-out: In vitro-activity against human tumor cell lines, KB-3-1): 40 nM; IC50 ([4]; Homo sapiens, KBC-1, Table 4, 72 hours, read-out: In vitro-activity against human tumor cell lines, KB-C1): 110 nM; IC50 ([5]; Homo sapiens, Table 4, 72 hours, read-out: In vitro-activity against human tumor cell lines, KB-HU): 120 nM; IC50 ([7]; Homo sapiens): 199 nM; IC90 ([7]; Homo sapiens): 3790 nM; Mean IC70 [7]: 560 nM
COc1ccnc(C(C)=NNc2nc3ccccc3n2C)c1 [Id-2]	50 nM	160 nM	40 nM	–	–	–	–	IC50 [2, 9]: 50 nM; IC50 [3, 10]: 120 nM; tumor type selectivity [7]: selectivity for colon, breast, ovarian, and uterus tumors; IC50 [7]: 80 nM; IC90 [7]: 2850 nM; Mean IC70 [7]: 261 nM
CC(=NNc1nc2ccccc2n1C)c1ccccn1 [Ia-5]	–	–	–	44 nM	5.4 nM	50 nM	48 nM	IC50 [5, 18]: 52 nM; IC50 [6, 19]: 4.3 nM
CC(=NNc1nc2ccccc2[nH]1)c1ccccn1 [Ia-4, 1-(2-Pyridyl)-1-ethanon-1(1H-benzo[d]imidazol-2-yl)-hydrazone]	–	–	–	–	–	–	–	IC50 ([1]; Homo sapiens, KB 3-1, Table 1, 72 hours, read-out: IC50 KB-3-1): 510 nM; IC50 ([2]; Homo sapiens, HeLa, Table 1, 72 hours, read-out: IC50 HeLa (converted)): 70 nM; IC50 ([3]; Homo sapiens, HT-29, Table 1, 72 hours, read-out: IC50 HT-29 (converted)): 490 nM; IC50 ([4]; Homo sapiens, KBC-1, Table 1, 72 hours, read-out: IC50 KB-Cl): 1970 nM; IC50 ([5]; Homo sapiens, Table 1, 72 hours, read-out: IC50 KB-HU): 900 nM; IC50 ([6]; Homo sapiens, CA46, Table 1, 72 hours, read-out: IC50 Burkitts): 44 nM
CC(C)C(=NNc1nc2ccccc2[nH]1)c1ccccn1 [Ia-15]	–	–	–	700 nM	21 nM	520 nM	1980 nM	IC50 [5, 18]: 1 nM
c1ccc(C(=NNc2nc3ccccc3[nH]2)C2CC2)nc1 [Ia-23]	–	–	–	–	70 nM	510 nM	320 nM	–
C(=NNc1nc2ccccc2[nH]1)c1ccccn1 [Ia-1]	–	–	–	1360 nM	1020 nM	3690 nM	2940 nM	IC50 [6, 19]: 660 nM
CC(=NNc1nc2ccccc2n1C)c1ncccc1Cl [Id-3]	310 nM	300 nM	180 nM	–	–	–	–	IC50 [2, 9]: 250 nM; IC50 [3, 10]: 540 nM; IC50 [6, 13]: 4 nM
CC(C)(C)C(=NNc1nc2ccccc2[nH]1)c1ccccn1 [Ia-19]	–	–	–	–	> 100000 nM	> 100000 nM	92000 nM	–
Cn1c(NN=Cc2ccccn2)nc2ccccc21 [Ia-2]	–	–	–	–	80 nM	270 nM	–	IC50 [6, 19]: 30 nM
CCC(=NNc1nc2ccccc2o1)c1ccccn1 [Ia-9]	–	–	–	–	–	–	–	tumor type selectivity [7]: selectivity for colon, breast, ovarian, and uterus tumors
CC(=NNc1nc2ccccc2n1C)c1ncccc1C [Id-7]	260 nM	160 nM	460 nM	–	–	–	–	–
C(=NNc1nc2ccccc2o1)c1ccccn1 [Ia-3]	–	–	–	480 nM	25 nM	1440 nM	770 nM	IC50 [5, 18]: 610 nM; IC50 [6, 19]: 5 nM
CC(=NNc1nc2ccccc2n1C)c1cc(C)ccn1 [Id-8]	30 nM	100 nM	20 nM	–	–	–	–	tumor type selectivity [7]: selectivity for colon, breast, ovarian, and uterus tumors; IC50 [7]: 102 nM; IC90 [7]: 2380 nM; Mean IC70 [7]: 317 nM
c1ccc(C(=NNc2nc3ccccc3[nH]2)c2ccccn2)nc1 [Ia-36]	–	–	–	–	1430 nM	1360 nM	2110 nM	–
CCCC(=NNc1nc2ccccc2[nH]1)c1ccccn1 [Ia-11]	–	–	–	500 nM	57 nM	200 nM	830 nM	IC50 [5, 18]: 130 nM
CCC(=NNc1nc2ccccc2[nH]1)c1ccccn1 [Ia-7]	–	–	–	4010 nM	53 nM	240 nM	740 nM	–
